Assay results from US20080207622A1, “SOLUBLE EPOXIDE HYDROLASE INHIBITORS” (Arete Therapeutics, Inc., priority 2006, published 2008).

Tests used:
[1] = tested on: soluble epoxide hydrolase (sEH); assay: Fluorescent assay for mouse and human soluble epoxide hydrolase (CMNPC substrate); assay type: biochemical
Text: Fluorescent Assay for Mouse and Human Soluble Epoxide Hydrolase
Recombinant mouse sEH (MsEH) and human sEH (HsEH) were produced in a baculovirus expression system as previously reported. Grant et al., J. Biol. Chem., 268:17628-17633 (1993); Beetham et al., Arch. Biochem. Biophys., 305:197-201 (1993). The expressed proteins were purified from cell lysate by affinity chromatography. Wixtrom et al., Anal. Biochem., 169:71-80 (1988). Protein concentration was quantified using the Pierce BCA assay using bovine serum albumin as the calibrating standard. The preparations were at least 97% pure as judged by SDS-PAGE and scanning densitometry. They contained no detectable esterase or glutathione transferase activity which can interfere with the assay. The assay was also evaluated with similar results in crude cell lysates or homogenate of tissues.
The IC50s for each inhibitor were determined according to the following procedure:
Cyano(2-methoxynaphthalen-6-yl)methyl (3-phenyloxiran-2-yl)methyl carbonate (CMNPC; Jones P. D. et. al.; Analytical Biochemistry 2005; 343: pp. 66-75)
Bis/Tris HCl 25 mM pH 7.0 containing 0.1 mg/mL of BSA (buffer A) CMNPC at 0.25 mM in DMSO.
Mother solution of enzyme in buffer A (Mouse sEH at 6 μg/mL and Human sEH at 5 μg/mL).
Inhibitor dissolved in DMSO at the appropriate concentration.
In a black 96 well plate, fill all the wells with 150 μL of buffer A.
Add 2 μL of DMSO in well A2 and A3, and then add 2 μL of inhibitor solution in A1 and A4 through A12.
Add 150 μL of buffer A in row A, then mix several time and transfer 150 μL to row B. Repeat this operation up to row H. The 150 μL removed from row H is discarded.
Add 20 μL of buffer A in column 1 and 2, then add 20 μL of enzyme solution to column 3 to 12.
Incubate the plate for 5 minutes in the plate reader at 30° C.
During incubation prepare the working solution of substrate by mixing 3.68 mL of buffer A (4×0.920 mL) with 266 μL (2×133 μL) of substrate solution).
At t=0, add 30 μL of working substrate solution with multi-channel pipette labeled “Briggs 303” and start the reading ([S]final: 5 μM).
Read with ex: 330 nm (20 nm) and em: 465 nm (20 nm) every 30 second for 10 minutes. The velocities are used to analyze and calculate the IC50s.

| % Inhibition ([1]; Conc. 50 nM) [%] | Structure (SMILES) | other results |
| --- | --- | --- |
| 92 | O=C(Nc1ccc(C(F)(F)F)cc1)Nc1ccc(S(=O)(=O)c2ccccc2)cc1 [Compound 1, 1-(4-Benzenesulfonyl-phenyl)-3-(4-trifluoromethyl-phenyl)-urea] |  |
|  | O=C(Nc1ccccc1)Nc1cccc(S(=O)(=O)CCCN2CCOCC2)c1 [Compound 4, 1-[3-(3-Morpholin-4-yl-propane-1-sulfonyl)-phenyl]-3-phenyl-urea] | % Inhibition ([1]; Conc. 500 nM): 74% |
|  | COc1ccc(S(=O)(=O)c2ccc(NC(=O)NC34CC5CC(CC(C5)C3)C4)cc2)nn1 [Compound 10, 1-Adamantan-1-yl-3-[4-(6-methoxy-pyridazine-3-sulfonyl)-phenyl]-urea] | % Inhibition ([1]; Conc. 2000 nM): 100%; melting point: 252 to 254 °C |
| 79 | CS(=O)(=O)c1ccc(NC(=O)Nc2ccc(C(F)(F)F)cc2)cc1 [Compound 2, 1-(4-Methanesulfonyl-phenyl)-3-(4-trifluoromethyl-phenyl)-urea] |  |
| 88 | CS(=O)(=O)c1cccc(NC(=O)Nc2ccc(C(F)(F)F)cc2)c1 [Compound 3, 1-(3-Methanesulfonyl-phenyl)-3-(4-trifluoromethyl-phenyl)-urea] |  |
